Results: patent US20260317367A1, “SALTS INCLUDING CRYSTALLINE SALTS OF 25-HYDROXY-CHOLEST-5-EN-3-SULFATE AND METHODS FOR PREPARING SAME” (Durect Corporation, priority 2022, published 2026)
“Also recorded” adds a separate entry of the source. Where a name gives a salt, the structure may show the parent alone.

Assays:
Assay type in all cases: physicochemical
[1] = Solid-state chemical stability of 25HC3S salts at 2-8° C., 60° C. and 80° C. (HPLC assay and degradation products); conditions: for % Impurities, Total / % Impurities, 25-HC: ND = Not Detected; for % Impurities, 25-HC: 25-Hydroxy-Cholesterol; for Physical and chemical solid-state stability (comments): listed as 25HC3S Hydroxyethylammonium
In short: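 Crystalline 25HC3S salts (~25 mg powder per vial) stored at 2-8° C. or 80° C., pulled at 3 and 6 weeks; some 3-week 2-8° C. vials moved to 60° C. for 1 week. Dissolved in 100% methanol (sonication/vortexing, centrifugation or dilution), then HPLC against 25HC3S sodium standards (0.75-1.25 mg/mL) for assay and degradants.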

[2] = Final pH of the solubility sample solutions in aqueous media
In short: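 Undiluted HPLC assay of centrifuged (12000 rpm, 12–15 min) supernatants from aqueous 25HC3S salt suspensions. These suspensions were kept with excess solid and shaken one day at room temperature, 210 motions/min.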

[3] = Appearance (color, clumping, flowability) of stored 25HC3S salts; conditions: for Appearance: listed as 25HC3S hydroxyethylammonium
[4] = Overall rank order of powder flowability (angle of repose and Hausner ratio); conditions: for Powder flowability, overall (in words): angle of repose and compressibility index/Hausner ratio combined
Excerpt: Table C5 was generated by adding the relative rank order of the 25HC3S salts for angle of repose and Hausner ratio results, and creating an Over All Rank Order of the salts powder flowability. The salts with the lower overall rank order score had better powder flowability.

[5] = Angle of repose of 25HC3S salts; conditions: listed as 25HC3S hydroxyethylammonium
In short: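 About 2 g of salt powder was poured through a 7 mm inner-diameter tube into a 21.14 mm rubber O-ring, forming a cone of fixed diameter. Cone height was measured with calipers and the angle of repose was calculated from it. Flow was classified per USP<1174>.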

[6] = Solubility of 25HC3S salts after one day at room temperature (HPLC, as free acid); conditions: one day
In short: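 HPLC quantified the clear supernatant after centrifugation, with organic-solvent samples diluted in water:MeOH 95:5 and aqueous ones undiluted; results are mg/mL as free acid (LOD 0.0007 mg/mL). Each salt was first equilibrated as a suspension with excess solid for one day on a room-temperature shaker.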

[7] = 2-8° C., 3 wk, listed as 25HC3S hydroxyethylammonium
[8] = 60° C., 1 wk, listed as 25HC3S hydroxyethylammonium
[9] = rank, lower is better flow, listed as 25HC3S hydroxyethylammonium

- Assay ([1]; 2-8° C., 3 wk, 30240 min, listed as 25HC3S hydroxyethylammonium): 91.9 % w/w
- % Impurities, Total [1, 7]: 3.1%
- % Impurities, 25-HC [1, 7]: 1.2%
- % Impurities, 25-HC [1, 8]: 11.3%
- Assay ([1]; 60° C., 1 wk (after 3 weeks at 2-8° C.), 10080 min, listed as 25HC3S hydroxyethylammonium, 10080 min): 0.0 % w/w
- % Recovery of 2-8° C./3 wk vs 60° C./1 wk ([1]; 60° C., 1 wk, 10080 min, listed as 25HC3S hydroxyethylammonium): 0.0%
- % Impurities, Total [1, 8]: 99.7%
- % Recovery ([1]; 80° C., 3 wk, vs 2-8° C., 30240 min, listed as 25HC3S hydroxyethylammonium, 30240 min): 0.0%
- Assay ([1]; 80° C., 3 wk, 30240 min, listed as 25HC3S hydroxyethylammonium): 0.0 % w/w
- % Impurities, Total ([1]; 80° C., 3 wk, listed as 25HC3S hydroxyethylammonium): 100.1%
- Stability after 1 week at 60° C. (in words) ([1]; solid state, 60° C., 1 week (after 3 weeks at 2-8° C.)): totally decomposed
- Stability after 3 weeks at 80° C. (in words) ([1]; solid state, 80° C., 3 weeks): totally decomposed
- pH of the solubility sample, 0.9% Sodium Chloride ([2]; 0.9% sodium chloride (blank 5.8), listed as 25HC3S hydroxyethylammonium): 8.2
- pH of the solubility sample, 5% Dextrose ([2]; 5% dextrose (blank 4.7), listed as 25HC3S hydroxyethylammonium): 7.0
- pH of the solubility sample, FaSSGF ([2]; FaSSGF (blank 1.5, 1.6)): 1.6
- pH of the solubility sample, FaSSIF ([2]; FaSSIF (blank 6.5, 6.5)): 6.6
- pH of the solubility sample, FeSSIF ([2]; FeSSIF (blank 4.9, 5.0)): 5.0
- pH of the solubility sample, Water ([2]; water (blank 6.3), listed as 25HC3S hydroxyethylammonium): 8.6
- Appearance ([3]; 2-8° C., 3 wk): White, free flowing powder, no clumping
- Appearance ([3]; 60° C., 1 wk (after 3 weeks at 2-8° C.)): Light brown, partially melted material
- Appearance after 3 weeks at 80° C. ([3]; 80° C., 3 weeks): completely burned
- Appearance ([3]; 80° C., 3 wk): Dark brown, partially melted material
- Powder flowability, overall (in words) ([4]; listed as crystalline 25HC3S hydroxyethylammonium): relatively good flowability
- Powder flowability, overall (in words) ([4]; listed as hydroxyethylammonium): top three
- Angle of Repose Rank Order [4, 9]: 1
- Hausner Ratio Rank Order [4, 9]: 1
- Overall Rank Order (Total Score) ([4]; sum of both ranks, lower is better flow, listed as 25HC3S hydroxyethylammonium): 2
- Angle of Repose [5]: 24.8 degrees
- Angle of Repose, Rounded Whole Number ([5]; rounded whole number): 25 degrees
- solubility at 24 h ([6]; 0.9% nacl, room temperature, as free acid, ND = not detected, detection limit 0.7 μg/mL, read-out: Solubility in 0.9% NaCl): 2 µg/mL
- Solubility in 5% Dextrose ([6]; 5% dextrose, room temperature, as free acid, ND = not detected, detection limit 0.7 μg/mL, 1440 min, listed as 25HC3S hydroxyethylammonium): 45 µg/mL
- Solubility in FaSSGF (in words) ([6]; FaSSGF, room temperature, listed as crystalline 25HC3S hydroxyethylammonium): low solubility
- Solubility in FaSSIF ([6]; FaSSIF, room temperature, as free acid, 1440 min, listed as 25HC3S hydroxyethylammonium): 107 µg/mL
- Solubility in FaSSGF ([6]; Fasted State Simulated Gastric Fluid, pH 1.6, room temperature, as free acid, LOD 0.0007 mg/mL): no solubilized drug was detected
- Solubility in FeSSIF ([6]; FeSSIF, room temperature, as free acid, 1440 min, listed as 25HC3S hydroxyethylammonium): 718 µg/mL
- Solubility in methanol (in words) ([6]; MeOH, room temperature): did not reach saturation
- Solubility in ACN ([6]; acetonitrile, room temperature, as free acid, 1440 min, listed as 25HC3S hydroxyethylammonium): 200 µg/mL
- Solubility in EtOH ([6]; ethanol, room temperature, as free acid, ≥ = did not reach saturation, 1440 min, listed as 25HC3S hydroxyethylammonium): ≥22000 µg/mL
- Solubility in IPA ([6]; isopropyl alcohol, room temperature, as free acid, 1440 min, listed as 25HC3S hydroxyethylammonium): 3700 µg/mL
- Solubility in MeOH ([6]; methanol, room temperature, as free acid, ≥ = did not reach saturation, 1440 min, listed as 25HC3S hydroxyethylammonium): ≥47000 µg/mL
- Solubility in H2O ([6]; water, room temperature, as free acid, ND = not detected, detection limit 0.7 μg/mL, 1440 min, listed as 25HC3S hydroxyethylammonium): 43 µg/mL
Compound: CC(CCCC(C)(C)O)C1CCC2C3CC=C4CC(OS(=O)(=O)O)CCC4(C)C3CCC12C (centres unmarked) [Salt #5]
- Overall physical and chemical stability (in words) ([1]; 2-8° C., 60° C., 80° C.): least stable organic salt; also recorded: least physically and chemically stable
- Physical and chemical solid-state stability (comments) ([1]; 60° C., 1 week): Totally decomposed after 1 week at 60 °C and after 3 weeks at 80 °C
- Physical and chemical solid-state stability (comments) ([1]; 80° C., 3 weeks): Totally decomposed after 1 week at 60 °C and after 3 weeks at 80 °C
